Experiments:
Experiment in all cases: Bliss excess, mean over the matrix (fraction); higher = more synergy
[1] = test system: SK-OV-3 (Ovarian Carcinoma)
Procedure, shortened: (§1)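 Cell lines grown in DMEM/F12 or RPMI with 10% FBS were plated in 1536-well plates and held 24 hours at 37°C, 5% CO2 before 72 hours of exposure to two-drug dose matrices, with DMSO typically at 0.2%. CellTiter-Glo 2.0 luminescence gave viability, which was converted to inhibition. Vehicle wells were set to 0 and blank wells to 1. Combination Emax is the second-highest inhibition in the matrix, and Bliss excess is the observed combination effect minus the expected EA + EB − EA·EB, where EA and EB are the single-agent effects.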

[2] = test system: TE-4 (Esophageal Squamous Cell Carcinoma)
Procedure, shortened: as §1

[3] = test system: HCC-15 (Squamous Cell Lung Carcinoma)
Procedure, shortened: as §1

[4] = test system: PCI-30 (Head and Neck Carcinoma)
Procedure, shortened: as §1

[5] = test system: CAL-54 (Kidney Carcinoma)
Procedure, shortened: as §1

HMV-II (Melanoma) = test system: HMV-II (Melanoma)
Procedure, shortened: as §1

[6] = test system: SW1271 (Small Cell Lung Carcinoma)
Procedure, shortened: as §1

NCI-H2795 (Mesothelioma) = test system: NCI-H2795 (Mesothelioma)
Procedure, shortened: as §1

NCI-H28 (Mesothelioma) = test system: NCI-H28 (Mesothelioma)
Procedure, shortened: as §1

[7] = test system: OC-314 (Ovarian Carcinoma)
Procedure, shortened: as §1

[8] = test system: LU-139 (Small Cell Lung Carcinoma)
Procedure, shortened: as §1

[9] = test system: HDLM-2 (Hodgkin's Lymphoma)
Procedure, shortened: as §1

[10] = test system: SW626 (Colorectal Carcinoma)
Procedure, shortened: as §1

[11] = test system: SUP-T1 (T-Lymphoblastic Leukemia)
Procedure, shortened: as §1

[12] = test system: CAL-51 (Breast Carcinoma)
Procedure, shortened: as §1

[13] = test system: MHH-PREB-1 (B-Cell Non-Hodgkin's Lymphoma)
Procedure, shortened: as §1

[14] = test system: KYSE-410 (Esophageal Squamous Cell Carcinoma)
Procedure, shortened: as §1

[15] = test system: UMC-11 (Other Solid Carcinomas)
Procedure, shortened: as §1

[16] = test system: Hs-633T (Other Solid Carcinomas)
Procedure, shortened: as §1

[17] = test system: SW1116 (Colorectal Carcinoma)
Procedure, shortened: as §1

Structure (SMILES) | Bliss excess [1] | Bliss excess [2] | Bliss excess [3] | Bliss excess [4] | Bliss excess [5] | Bliss excess (HMV-II (Melanoma)) | Bliss excess [6] | Bliss excess (NCI-H2795 (Mesothelioma)) | Bliss excess (NCI-H28 (Mesothelioma)) | Bliss excess [7] | Bliss excess [8] | Bliss excess [9] | Bliss excess [10] | Bliss excess [11] | Bliss excess [12] | Bliss excess [13] | Bliss excess [14] | Bliss excess [15] | Bliss excess [16] | Bliss excess [17]
C[C@@H](c1ccc2nccn2c1)n1nnc2ncc(-c3cnn(C)c3)nc21 [Savolitinib] + CC1(C)CCC(CN2CCN(c3ccc(C(=O)NS(=O)(=O)c4ccc(NCC5CCOCC5)c([N+](=O)[O-])c4)c(Oc4cnc5[nH]ccc5c4)c3)CC2)=C(c2ccc(Cl)cc2)C1 [Venetoclax] (first compound max 1 µM, 7x7, partner max 1 µM) | -0.0511 | -0.009 | -0.0229 | -0.0899 | -0.102 | -0.0621 | -0.0436 | 0.0032 | -0.0481 | -0.0046 | -0.0256 | -0.0465 | -0.066 | -0.0456 | -0.0522 | -0.0286 | -0.0726 | -0.0303 | -0.0383 | -0.0595
CC1(C)CCC(CN2CCN(c3ccc(C(=O)NS(=O)(=O)c4ccc(NCC5CCOCC5)c([N+](=O)[O-])c4)c(Oc4cnc5[nH]ccc5c4)c3)CC2)=C(c2ccc(Cl)cc2)C1 [Venetoclax] + C=CCn1c(=O)c2cnc(Nc3ccc(N4CCN(C)CC4)cc3)nc2n1-c1cccc(C(C)(C)O)n1 [AZD1775] (first compound max 1 µM, partner max 1 µM) | -0.026 | -0.0529 | -0.0355 | 0.0974 | -0.0099 | -0.0542 | 0.0381 | 0.0657 | -0.048 | 0.1 | 0.0207 | 0.0749 | -0.0676 | 0.0425 | -0.0507 | -0.0328 | -0.0451 | -0.0679 | 0.017 | -0.0214
Cc1cc2ncnn2cc1Nc1ncc2c(n1)n(C1CCOCC1)c(=O)n2C [AZD7648] + O=C(c1cc(Cc2n[nH]c(=O)c3ccccc23)ccc1F)N1CCN(C(=O)C2CC2)CC1 [Olaparib] (first compound max 10 µM, 7x7, partner max 10 µM) | -0.0478 | 0.0061 | -0.0059 | -0.0695 | -0.0408 | -0.0181 | -0.0461 | -0.0183 | -0.0378 | -0.0164 | -0.0492 | -0.0558 | -0.0584 | -0.0488 | -0.0214 | -0.026 | -0.0466 | 0.0471 | -0.0191 | -0.0421
NC1(C(=O)N[C@@H](CCO)c2ccc(Cl)cc2)CCN(c2ncnc3[nH]ccc23)CC1 [Capivasertib] + C[C@@H]1COCCN1C2=NC(=NC(=C2)C3(CC3)[S@](=N)(=O)C)C4=C5C=CNC5=NC=C4 [AZD6738] (first compound max 10 µM, 7x7, partner max 10 µM) | -0.0456 | -0.0349 | -0.0459 | -0.0582 | -0.0374 | -0.0717 | -0.0657 | -0.0197 | -0.0702 | -0.024 | -0.0083 | -0.0451 | -0.0622 | -0.0503 | -0.0096 | -0.0486 | -0.0369 | 0.0252 | -0.0002 | -0.011
CN(CCO)CC[C@H](CSc1ccccc1)Nc1ccc(S(=O)(=O)NC(=O)c2ccc(N3CCC([C@@H](O)c4ccccc4-c4ccc(Cl)cc4)CC3)cc2)cc1S(=O)(=O)C(F)(F)F [AZD4320] + CCN(CCO)CCCOc1ccc2c(Nc3cc(CC(=O)Nc4cccc(F)c4)[nH]n3)ncnc2c1 [AZD2811] (first compound max 1 µM, 7x7, partner max 1 µM) | -0.0522 | -0.0186 | -0.0091 | -0.0085 | -0.0406 | -0.0357 | -0.0428 | 0.0386 | -0.0045 | 0.156 | 0.0775 | 0.0781 | 0.0278 | 0.0933 | 0.0881 | 0.0034 | -0.0437 | -0.0565 | -0.0212 | -0.0299
NC1(C(=O)N[C@@H](CCO)c2ccc(Cl)cc2)CCN(c2ncnc3[nH]ccc23)CC1 [Capivasertib] + CC(=O)c1c(C)c2cnc(Nc3ccc(N4CCNCC4)cn3)nc2n(C2CCCC2)c1=O [Palbociclib] (first compound max 10 µM, 7x7, partner max 10 µM) | -0.0463 | 0.0094 | -0.0442 | -0.0554 | -0.0279 | -0.0138 | 0.043 | 0.0247 | -0.0343 | 0.0028 | -0.0256 | -0.0222 | 0.014 | -0.0239 | 0.0262 | -0.0158 | 0.0199 | 0.039 | 0.0179 | -0.0297
Cc1c2c(nn1C)CSCc1cc(n(C)n1)CSc1cc(c3ccccc3c1)OCCCc1c(C(=O)O)n(C)c3c-2c(Cl)ccc13 [AZD5991] + C[C@@H](Nc1cc(F)cc(F)c1)c1cc(C(=O)N(C)C)cc2c(=O)cc(N3CCOCC3)oc12 [AZD8186] (first compound max 1 µM, 7x7, partner max 3 µM) | -0.0501 | 0.0492 | -0.0047 | -0.0209 | -0.004 | -0.0401 | -0.0576 | 0.0848 | -0.0245 | -0.0029 | -0.0439 | -0.0351 | -0.0268 | -0.0003 | 0.0173 | -0.0069 | -0.0639 | -0.039 | 0.0127 | 0.0046
CN(CCO)CC[C@H](CSc1ccccc1)Nc1ccc(S(=O)(=O)NC(=O)c2ccc(N3CCC([C@@H](O)c4ccccc4-c4ccc(Cl)cc4)CC3)cc2)cc1S(=O)(=O)C(F)(F)F [AZD4320] + Cn1cnc2c(F)c(Nc3ccc(Br)cc3Cl)c(C(=O)NOCCO)cc21 [Selumetinib] (first compound max 1 µM, 7x7, partner max 3 µM) | -0.0362 | 0.0025 | 0.0827 | 0.0023 | 0.0336 | 0.0015 | 0.0306 | -0.02 | 0.0103 | 0.0048 | -0.006 | 0.0231 | 0.0271 | -0.0462 | 0.0502 | 0.0272 | 0.0417 | -0.0068 | -0.0329 | 0.0737
CC1(C)CCC(CN2CCN(c3ccc(C(=O)NS(=O)(=O)c4ccc(NCC5CCOCC5)c([N+](=O)[O-])c4)c(Oc4cnc5[nH]ccc5c4)c3)CC2)=C(c2ccc(Cl)cc2)C1 [Venetoclax] + CCN(CCO)CCCOc1ccc2c(Nc3cc(CC(=O)Nc4cccc(F)c4)[nH]n3)ncnc2c1 [AZD2811] (first compound max 1 µM, 7x7, partner max 1 µM) | -0.0401 | -0.005 | -0.0209 | -0.0231 | -0.0105 | 0.0208 | -0.0483 | -0.0581 | -0.0346 | -0.0071 | 0.0596 | 0.106 | -0.0394 | -0.0012 | 0.046 | -0.0052 | -0.0234 | -0.0398 | -0.0086 | -0.046
COc1nnc2ccc(N3CCC(c4ccc(OCCN5CCN(C)C(=O)[C@H]5C)cc4)CC3)nn12 [AZD5153] + C=CCn1c(=O)c2cnc(Nc3ccc(N4CCN(C)CC4)cc3)nc2n1-c1cccc(C(C)(C)O)n1 [AZD1775] (first compound max 1 µM, partner max 1 µM) | -0.0428 | -0.0199 | -0.0356 | -0.0307 | -0.0366 | -0.0783 | -0.0763 | -0.0308 | -0.0562 | 0.0105 | -0.0474 | -0.125 | 0.0045 | -0.068 | -0.0111 | 0.007 | -0.0516 | 0.0058 | -0.0516 | -0.0506
CC1(C)CCC(CN2CCN(c3ccc(C(=O)NS(=O)(=O)c4ccc(NCC5CCOCC5)c([N+](=O)[O-])c4)c(Oc4cnc5[nH]ccc5c4)c3)CC2)=C(c2ccc(Cl)cc2)C1 [Venetoclax] + C[C@@H](Nc1cc(F)cc(F)c1)c1cc(C(=O)N(C)C)cc2c(=O)cc(N3CCOCC3)oc12 [AZD8186] (first compound max 1 µM, 7x7, partner max 3 µM) | -0.0984 | -0.0315 | 0.0109 | -0.0292 | 0.0021 | 0.0093 | -0.055 | -0.0218 | -0.0502 | -0.05 | 0.0371 | 0.122 | -0.0258 | -0.0402 | -0.0394 | -0.0297 | -0.0397 | -0.0263 | -0.017 | -0.0358
NC1(C(=O)N[C@@H](CCO)c2ccc(Cl)cc2)CCN(c2ncnc3[nH]ccc23)CC1 [Capivasertib] + COc1nnc2ccc(N3CCC(c4ccc(OCCN5CCN(C)C(=O)[C@H]5C)cc4)CC3)nn12 [AZD5153] (first compound max 10 µM, 7x7, partner max 1 µM) | -0.0193 | 0.0684 | 0.009 | 0.0406 | -0.0039 | 0.014 | 0.0529 | -0.0197 | -0.062 | -0.0135 | -0.0574 | -0.0507 | -0.0156 | -0.0296 | 0.0957 | -0.0154 | 0.0437 | 0.0063 | 0.0419 | -0.0236
CCc1c2c(nc3ccc(O)cc13)-c1cc3c(c(=O)n1C2)COC(=O)[C@]3(O)CC [SN-38] + CN(C)CCCOc1ccc(-c2ccc3ncc4c(c3c2)n(C2CCOCC2)c(=O)n4C)cn1 [AZD0156] (first compound max 0.3 µM, 7x7, partner max 1 µM) | -0.0132 | 0.0185 | 0.16 | -0.0044 | 0.005 | -0.0108 | 0.0025 | 0.0334 | -0.0839 | 0.0872 | -0.118 | -0.0809 | -0.0379 | -0.0214 | 0.0611 | 0.0408 | -0.0542 | 0.0224 | 0.153 | -0.0108
COc1cccc(OCCCN)c1-c1cc(Nc2cnc(C#N)cn2)n[nH]1 [Prexasertib] + C=CCn1c(=O)c2cnc(Nc3ccc(N4CCN(C)CC4)cc3)nc2n1-c1cccc(C(C)(C)O)n1 [AZD1775] (first compound max 1 µM, partner max 1 µM) | 0.0324 | 0.0905 | 0.0293 | 0.0954 | -0.024 | 0.0779 | 0.0019 | 0.0221 | -0.0145 | 0.0884 | 0.0089 | -0.0404 | 0.0304 | -0.0504 | 0.101 | 0.0729 | 0.0066 | 0.0712 | 0.0796 | 0.0689

From the supplement of paper PMC11061612
